Test results from patent publication US8476284B2, “Inhibitors of Bruton's tyrosine kinase” (Pharmacyclics, Inc., priority 2006, dated 2013).

Legend:
Btk = Btk (Homo sapiens (Human), UniProt Q06187); experiment: Btk acellular kinase assay (TR-FRET)
DHL-6 cells = experiment: DHL-6 cell growth (Alamar Blue assay); format: cell-based; settings: 3E4 cells/well, complete media

Btk, sequence (Q06187 whole entry): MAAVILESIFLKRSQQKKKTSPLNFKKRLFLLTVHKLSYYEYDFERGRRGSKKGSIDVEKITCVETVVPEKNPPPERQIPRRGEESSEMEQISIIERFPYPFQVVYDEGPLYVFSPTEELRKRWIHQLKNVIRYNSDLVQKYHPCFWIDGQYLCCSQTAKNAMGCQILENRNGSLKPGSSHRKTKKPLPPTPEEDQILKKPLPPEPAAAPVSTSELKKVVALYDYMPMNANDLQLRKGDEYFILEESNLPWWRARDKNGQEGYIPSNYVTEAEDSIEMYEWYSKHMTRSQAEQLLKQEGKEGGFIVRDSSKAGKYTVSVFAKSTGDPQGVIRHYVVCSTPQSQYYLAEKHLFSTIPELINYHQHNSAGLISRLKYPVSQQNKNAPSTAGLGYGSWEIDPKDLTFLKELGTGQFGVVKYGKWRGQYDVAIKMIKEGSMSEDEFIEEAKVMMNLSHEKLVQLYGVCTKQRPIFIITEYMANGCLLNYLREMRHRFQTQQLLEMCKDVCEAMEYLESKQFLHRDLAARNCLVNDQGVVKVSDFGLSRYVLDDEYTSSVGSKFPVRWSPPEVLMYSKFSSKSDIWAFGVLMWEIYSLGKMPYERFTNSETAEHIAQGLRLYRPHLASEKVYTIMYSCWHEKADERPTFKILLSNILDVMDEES

SMILES	fold less potent than 4 (Btk) [fold]	growth of DHL-6 cells (DHL-6 cells)
C/C=C/C(=O)N1CCCC(n2nc(-c3ccc(Oc4ccccc4)cc3)c3c(N)ncnc32)C1 (centres unmarked) [Compound 5, (E)-1-(3-(4-amino-3-(4-phenoxyphenyl)-1H-pyrazolo[3,4-d]pyrimidin-1-yl)piperidin-1-yl)but-2-en-1-one]	28	
CN(C)C/C=C/C(=O)N1CCCC(n2nc(-c3ccc(Oc4ccccc4)cc3)c3c(N)ncnc32)C1 (centres unmarked) [Compound 15, (E)-1-(3-(4-amino-3-(4-phenoxyphenyl)-1H-pyrazolo[3,4-d]pyrimidin-1-yl)piperidin-1-yl)-4-(dimethylamino)but-2-en-1-one]		inhibit growth
